The record followed here is patent US20230339889A1, “DERIVATIVES OF 2-OXO-N-(4-(PYRIMIDIN-4-YLOXY/THIO)PHENYL)-1,2-DIHYDROPYRIDINE-3-CARBOXAMIDE FOR USE AS PROTEIN KINASE INHIBITORS FOR THERAPY” (AUCENTRA THERAPEUTICS PTY LTD, priority 2020, published 2023).

Common to all, as to assay type: biochemical
One assay addresses CDK2E (Homo sapiens, UniProt P24941). Briefly: ADP Glo Kinase assay. The settings on record: 1 µM compound; read-out: % Residual enzymatic activity at 1 µM CDK2E. On the procedure: (§1) Inhibition of CDKs and FLT3 were determined using ADP Glo Kinase assays, as previously described in International Patent Publication No WO 2017/020065.
(In general: ADP-Glo turns the ADP formed in a reaction into a luminescent signal.)

The target in the next assay is CDK4D1 (Homo sapiens, UniProt P11802). Briefly: ADP Glo Kinase assay. To be noted: 1 µM compound; read-out: % Residual enzymatic activity at 1 µM CDK4D1. The protocol: as §1
The next assay relates to FLT3-ITD. Kind of assay: ADP Glo Kinase assay. The settings on record: 1 µM compound. The protocol: as §1
The target in another assay is T1, AXL (Homo sapiens, UniProt P30530).
T1 construct: purchased Eurofins Discovery (Kinase Profiler service)
T1 sequence (P30530 26-894): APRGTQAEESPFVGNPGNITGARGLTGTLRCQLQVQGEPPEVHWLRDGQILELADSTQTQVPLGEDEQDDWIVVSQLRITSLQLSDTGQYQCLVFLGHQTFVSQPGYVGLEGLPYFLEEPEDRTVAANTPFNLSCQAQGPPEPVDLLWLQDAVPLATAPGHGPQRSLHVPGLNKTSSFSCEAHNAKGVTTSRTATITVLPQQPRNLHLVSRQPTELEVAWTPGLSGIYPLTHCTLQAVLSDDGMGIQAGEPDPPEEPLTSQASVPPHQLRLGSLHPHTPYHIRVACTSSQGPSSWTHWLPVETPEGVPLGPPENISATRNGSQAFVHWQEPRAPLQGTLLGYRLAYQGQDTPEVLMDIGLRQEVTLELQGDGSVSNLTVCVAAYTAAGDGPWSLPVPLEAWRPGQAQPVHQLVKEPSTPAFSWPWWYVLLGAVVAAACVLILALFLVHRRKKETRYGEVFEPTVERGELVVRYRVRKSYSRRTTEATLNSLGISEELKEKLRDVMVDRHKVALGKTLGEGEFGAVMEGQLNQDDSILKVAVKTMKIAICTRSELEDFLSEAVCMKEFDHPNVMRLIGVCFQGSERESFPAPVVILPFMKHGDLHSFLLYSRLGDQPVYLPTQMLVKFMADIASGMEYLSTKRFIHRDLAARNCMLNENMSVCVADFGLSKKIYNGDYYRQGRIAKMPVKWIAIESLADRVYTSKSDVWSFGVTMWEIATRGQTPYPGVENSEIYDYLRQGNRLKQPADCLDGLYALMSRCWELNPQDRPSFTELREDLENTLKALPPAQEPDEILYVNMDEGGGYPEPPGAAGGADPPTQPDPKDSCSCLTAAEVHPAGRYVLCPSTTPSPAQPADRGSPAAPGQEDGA
Kind of assay: Filter-binding radiometric kinase activity assay (KinaseProfiler, Eurofins). The settings on record: 1 µM compound; read-out: % Residual enzymatic activity at 1 µM AXL.

A further assay deals with T2, MET (Homo sapiens, UniProt P08581).
T2 construct: purchased Eurofins Discovery (Kinase Profiler service)
The assay is described as above. To be noted: 1 µM compound; read-out: % Residual enzymatic activity at 1 µM MET.

The target of the next assay is T3, Mer (Homo sapiens, UniProt Q12866).
T3 construct: purchased Eurofins Discovery (Kinase Profiler service)
T3 sequence (Q12866 21-999): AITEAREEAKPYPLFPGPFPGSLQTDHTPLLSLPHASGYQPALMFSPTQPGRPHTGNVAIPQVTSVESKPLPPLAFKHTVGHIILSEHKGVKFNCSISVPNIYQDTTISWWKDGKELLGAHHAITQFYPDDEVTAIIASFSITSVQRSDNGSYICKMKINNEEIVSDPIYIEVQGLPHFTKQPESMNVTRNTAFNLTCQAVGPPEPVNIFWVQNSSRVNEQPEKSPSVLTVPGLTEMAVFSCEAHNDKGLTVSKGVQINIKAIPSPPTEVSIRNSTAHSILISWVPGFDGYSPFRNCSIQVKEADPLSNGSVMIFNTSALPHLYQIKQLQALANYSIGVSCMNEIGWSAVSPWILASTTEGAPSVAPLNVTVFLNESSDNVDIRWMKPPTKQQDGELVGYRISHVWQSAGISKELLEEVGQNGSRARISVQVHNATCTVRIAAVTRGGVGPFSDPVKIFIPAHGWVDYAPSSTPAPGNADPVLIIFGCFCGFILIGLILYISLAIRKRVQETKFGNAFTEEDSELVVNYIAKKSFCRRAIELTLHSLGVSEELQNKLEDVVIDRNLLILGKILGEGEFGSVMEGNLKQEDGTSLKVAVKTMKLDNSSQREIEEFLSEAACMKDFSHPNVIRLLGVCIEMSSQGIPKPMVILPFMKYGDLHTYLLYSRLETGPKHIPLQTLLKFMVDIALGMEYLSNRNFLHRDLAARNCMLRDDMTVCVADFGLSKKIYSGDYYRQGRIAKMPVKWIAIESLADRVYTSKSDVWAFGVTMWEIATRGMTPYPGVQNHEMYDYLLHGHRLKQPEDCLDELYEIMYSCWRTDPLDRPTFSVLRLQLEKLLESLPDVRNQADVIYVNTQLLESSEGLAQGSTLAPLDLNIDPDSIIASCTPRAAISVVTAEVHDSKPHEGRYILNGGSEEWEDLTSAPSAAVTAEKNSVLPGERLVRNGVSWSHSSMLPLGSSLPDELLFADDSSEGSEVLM
The description is as above. The settings on record: 1 µM compound; read-out: % Residual enzymatic activity at 1 µM Mer.

Sequence of CDK4D1 (P11802 whole entry): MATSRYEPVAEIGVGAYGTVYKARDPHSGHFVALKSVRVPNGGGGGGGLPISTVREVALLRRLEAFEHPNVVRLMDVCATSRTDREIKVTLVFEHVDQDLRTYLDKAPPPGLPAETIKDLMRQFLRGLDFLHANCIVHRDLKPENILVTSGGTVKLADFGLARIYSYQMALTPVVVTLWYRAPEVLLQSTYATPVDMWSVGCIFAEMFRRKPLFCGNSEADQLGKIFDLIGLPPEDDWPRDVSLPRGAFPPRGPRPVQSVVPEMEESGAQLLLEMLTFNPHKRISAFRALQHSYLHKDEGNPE
Sequence of CDK4D1 (P24385 whole entry partner): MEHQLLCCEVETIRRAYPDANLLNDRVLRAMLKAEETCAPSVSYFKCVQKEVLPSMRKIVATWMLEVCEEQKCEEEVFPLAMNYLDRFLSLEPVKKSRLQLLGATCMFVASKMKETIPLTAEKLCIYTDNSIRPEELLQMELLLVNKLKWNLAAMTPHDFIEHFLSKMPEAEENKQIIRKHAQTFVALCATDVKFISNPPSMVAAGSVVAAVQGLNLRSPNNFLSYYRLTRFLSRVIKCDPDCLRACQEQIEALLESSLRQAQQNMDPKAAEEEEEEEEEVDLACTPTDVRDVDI
T2 sequence (P08581 25-1390): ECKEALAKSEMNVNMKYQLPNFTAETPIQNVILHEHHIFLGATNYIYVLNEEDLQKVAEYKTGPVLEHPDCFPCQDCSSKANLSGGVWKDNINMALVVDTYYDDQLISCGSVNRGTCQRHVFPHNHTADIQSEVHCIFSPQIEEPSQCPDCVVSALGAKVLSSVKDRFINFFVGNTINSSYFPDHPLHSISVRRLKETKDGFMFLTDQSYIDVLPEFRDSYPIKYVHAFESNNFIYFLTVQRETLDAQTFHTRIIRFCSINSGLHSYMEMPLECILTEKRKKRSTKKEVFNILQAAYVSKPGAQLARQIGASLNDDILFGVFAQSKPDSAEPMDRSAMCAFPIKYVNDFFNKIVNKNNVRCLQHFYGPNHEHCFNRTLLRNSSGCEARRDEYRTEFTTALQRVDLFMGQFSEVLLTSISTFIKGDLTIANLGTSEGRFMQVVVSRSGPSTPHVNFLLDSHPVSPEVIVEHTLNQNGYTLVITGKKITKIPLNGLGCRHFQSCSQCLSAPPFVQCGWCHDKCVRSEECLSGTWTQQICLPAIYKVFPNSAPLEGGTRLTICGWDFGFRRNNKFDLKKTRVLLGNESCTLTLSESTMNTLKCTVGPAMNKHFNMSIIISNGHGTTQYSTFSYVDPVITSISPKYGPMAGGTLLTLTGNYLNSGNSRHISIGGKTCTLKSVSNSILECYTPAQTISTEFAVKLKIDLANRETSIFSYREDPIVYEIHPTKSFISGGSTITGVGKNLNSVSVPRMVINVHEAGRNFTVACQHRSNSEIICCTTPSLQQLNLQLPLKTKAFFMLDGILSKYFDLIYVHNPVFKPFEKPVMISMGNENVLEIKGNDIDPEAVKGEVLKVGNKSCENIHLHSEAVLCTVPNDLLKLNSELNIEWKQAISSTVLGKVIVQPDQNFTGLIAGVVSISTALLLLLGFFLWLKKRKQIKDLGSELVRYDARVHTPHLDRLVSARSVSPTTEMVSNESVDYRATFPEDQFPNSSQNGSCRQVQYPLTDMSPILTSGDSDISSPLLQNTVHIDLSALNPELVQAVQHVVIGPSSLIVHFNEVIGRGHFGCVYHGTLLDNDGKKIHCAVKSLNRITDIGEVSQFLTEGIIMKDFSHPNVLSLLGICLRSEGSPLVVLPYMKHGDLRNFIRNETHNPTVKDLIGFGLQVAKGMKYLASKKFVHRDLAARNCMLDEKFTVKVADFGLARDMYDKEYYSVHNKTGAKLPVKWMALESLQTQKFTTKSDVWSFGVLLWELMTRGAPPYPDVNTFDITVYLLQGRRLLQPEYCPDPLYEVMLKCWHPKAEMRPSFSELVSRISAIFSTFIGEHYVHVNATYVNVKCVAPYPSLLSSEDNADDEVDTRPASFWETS

On to `Nc1ncnc(Oc2ccc(NC(=O)c3cccn(-c4ccc(F)cc4)c3=O)c(F)c2)c1Cl` [Cmpd 5, N-(4-((6-amino-5-chloropyrimidin-4-yl)oxy)-2-fluorophenyl)-1-(4-fluorophenyl)-2-oxo-1,2-dihydropyridine-3-carboxamide], for which the remaining activity at 1 µM on CDK2E is 92%; at CDK4D1, 72%; on AXL, -8%; on MET it was -5%; at Mer, 0%. Further, the “% Residual enzymatic activity at 1 µM FLT3-ITD” value (from here on “% Residual enzymatic activity”) with FLT3-ITD is given as 43%.

For the compound `Nc1ncnc(Oc2ccc(NC(=O)c3cccn(-c4ccc(F)cc4)c3=O)c(F)c2)c1F` [Cmpd 7, N-(4-((6-amino-5-fluoropyrimidin-4-yl)oxy)-2-fluorophenyl)-1-(4-fluorophenyl)-2-oxo-1,2-dihydropyridine-3-carboxamide], the remaining activity at 1 µM at CDK2E was 80%; at CDK4D1, 72%; on AXL, 8%; at MET, -6%; at Mer it was 4%. In addition, the “% Residual enzymatic activity” value in the assay on FLT3-ITD was 40%.

On to `Nc1ncnc(Oc2ccc(NC(=O)c3cccn(-c4ccc(F)cc4)c3=O)cc2)c1F` [Cmpd 6, N-(4-((6-amino-5-fluoropyrimidin-4-yl)oxy)phenyl)-1-(4-fluorophenyl)-2-oxo-1,2-dihydropyridine-3-carboxamide], for which the remaining activity at 1 µM at CDK2E was 89%; on CDK4D1, 69%; on AXL, 14%; on MET, 8%; on Mer, 14%. In addition, in the assay with FLT3-ITD, the “% Residual enzymatic activity” value was found to be 79%.

Regarding `Nc1ncnc(Oc2ccc(NC(=O)c3cccn(-c4ccc(F)cc4)c3=O)cc2)c1Cl` [Cmpd 4, N-(4-((6-amino-5-chloropyrimidin-4-yl)oxy)phenyl)-1-(4-fluorophenyl)-2-oxo-1,2-dihydropyridine-3-carboxamide], the remaining activity at 1 µM was 97% on CDK2E; 48% at CDK4D1; -1% at AXL; -5% on MET; 19% on Mer. For the same compound, the “% Residual enzymatic activity” value with FLT3-ITD is on record as 33%.

Regarding `Nc1ncnc(Oc2ccc(NC(=O)c3cccn(-c4ccc(F)cc4)c3=O)cc2F)c1F` [Cmpd 1, N-(4-((6-amino-5-fluoropyrimidin-4-yl)oxy)-3-fluorophenyl)-1-(4-fluorophenyl)-2-oxo-1,2-dihydropyridine-3-carboxamide], the remaining activity at 1 µM at CDK2E stood at 99%; on CDK4D1, 40%; at AXL, 13%; at MET, 0%; at Mer it was 12%. For the same compound, in the assay with FLT3-ITD, the “% Residual enzymatic activity” value turned out to be 50%.

For the compound `Nc1ncnc(Oc2ccc(NC(=O)c3cccn(-c4ccc(F)cc4)c3=O)cc2F)c1Cl` [Cmpd 3, N-(4-((6-amino-5-chloropyrimidin-4-yl)oxy)-3-fluorophenyl)-1-(4-fluorophenyl)-2-oxo-1,2-dihydropyridine-3-carboxamide], the remaining activity at 1 µM on CDK2E was 96%; on CDK4D1, 69%; at AXL, 4%; at MET, -7%; at Mer, 6%. Besides, in the assay with FLT3-ITD, the “% Residual enzymatic activity” value came to 49%.
